Assay results published in US11716992B2, “5A5B6C tricyclic spirolactone derivative, preparation method therefor and use thereof” (NANKAI UNIVERSITY, priority 2017, dated 2023).

System: Alternaria solani
Experiment: Fungicidal activity, fungicide growth rate method, AS
Type: cell-based
Settings: Alternaria solani, 50 μg/mL; read-out: fungicidal activity (growth inhibition rate), AS

Row | SMILES | inhibition at 50 µg/mL
1 | C=CC[C@@H]1C[C@]2(O)CCO[C@@]23C[C@H]2O[C@H]2C[C@H]13 [Zyj07-31-2] | 22%
2 | C=CC[C@@H]1C[C@@]2(OC(C)=O)C[C@@H](CC=C)[C@H]3C[C@@H]4O[C@@H]4C[C@@]32O1 [Zyj07-67-2] | 0%
3 | O=C1C[C@@]2(O)CC[C@H]3C[C@@H]4O[C@@H]4C[C@@]32O1 [Zyj07-102] | 0%

System: Botrytis cinerea
Experiment: Fungicidal activity, fungicide growth rate method, BC
Type: cell-based
Settings: Botrytis cinerea, 50 μg/mL; read-out: fungicidal activity (growth inhibition rate), BC

Row | SMILES | inhibition at 50 µg/mL
4 | C=CC[C@@H]1C[C@]2(O)CCO[C@@]23C[C@H]2O[C@H]2C[C@H]13 [Zyj07-31-2] | 18%
5 | C=CC[C@@H]1C[C@@]2(OC(C)=O)C[C@@H](CC=C)[C@H]3C[C@@H]4O[C@@H]4C[C@@]32O1 [Zyj07-67-2] | > 50%
6 | O=C1C[C@@]2(O)CC[C@H]3C[C@@H]4O[C@@H]4C[C@@]32O1 [Zyj07-102] | 41%

System: Ostrinia furnacalis
Experiment: Insecticidal activity against Ostrinia furnacalis
Type: in vivo
Settings: Ostrinia furnacalis; 100 μg/mL; read-out: insecticidal activity, Ostrinia furnacalis

Row | SMILES | pest or weed control at 100 µg/mL
7 | C=CC[C@@H]1C[C@]2(O)CCO[C@@]23C[C@H]2O[C@H]2C[C@H]13 [Zyj07-31-2] | 0%
8 | C=CC[C@@H]1C[C@@]2(OC(C)=O)C[C@@H](CC=C)[C@H]3C[C@@H]4O[C@@H]4C[C@@]32O1 [Zyj07-67-2] | 0%
9 | O=C1C[C@@]2(O)CC[C@H]3C[C@@H]4O[C@@H]4C[C@@]32O1 [Zyj07-102] | 0%

System: wheat Gibberella zeae
Experiment: microbe, parasite or virus in culture
Type: cell-based
Settings: Fusarium graminearum, read-out: fungicidal activity (growth inhibition rate), GZ, 50 μg/mL

Row | SMILES | inhibition at 50 µg/mL
10 | C=CC[C@@H]1C[C@]2(O)CCO[C@@]23C[C@H]2O[C@H]2C[C@H]13 [Zyj07-31-2] | 3%
11 | C=CC[C@@H]1C[C@@]2(OC(C)=O)C[C@@H](CC=C)[C@H]3C[C@@H]4O[C@@H]4C[C@@]32O1 [Zyj07-67-2] | 0%
12 | O=C1C[C@@]2(O)CC[C@H]3C[C@@H]4O[C@@H]4C[C@@]32O1 [Zyj07-102] | 27%

System: Physalospora piricola
Experiment: Fungicidal activity, fungicide growth rate method, PP
Type: cell-based
Settings: 50 μg/mL; read-out: fungicidal activity (growth inhibition rate), PP

Row | SMILES | inhibition at 50 µg/mL
13 | C=CC[C@@H]1C[C@]2(O)CCO[C@@]23C[C@H]2O[C@H]2C[C@H]13 [Zyj07-31-2] | 31%
14 | C=CC[C@@H]1C[C@@]2(OC(C)=O)C[C@@H](CC=C)[C@H]3C[C@@H]4O[C@@H]4C[C@@]32O1 [Zyj07-67-2] | 13%
15 | O=C1C[C@@]2(O)CC[C@H]3C[C@@H]4O[C@@H]4C[C@@]32O1 [Zyj07-102] | 42%

System: Helicoverpa armigera (Hübner)
Experiment: Insecticidal activity against Helicoverpa armigera (Hübner)
Type: in vivo
Settings: Helicoverpa armigera; 100 μg/mL; read-out: insecticidal activity, Helicoverpa armigera (Hübner)

Row | SMILES | pest or weed control at 100 µg/mL
16 | C=CC[C@@H]1C[C@]2(O)CCO[C@@]23C[C@H]2O[C@H]2C[C@H]13 [Zyj07-31-2] | 0%
17 | C=CC[C@@H]1C[C@@]2(OC(C)=O)C[C@@H](CC=C)[C@H]3C[C@@H]4O[C@@H]4C[C@@]32O1 [Zyj07-67-2] | 0%
18 | O=C1C[C@@]2(O)CC[C@H]3C[C@@H]4O[C@@H]4C[C@@]32O1 [Zyj07-102] | 0%

System: not given
Experiment: not given
Settings: not given

Row | SMILES | melting point
19 | C=CC[C@@H]1C[C@@]2(OC(C)=O)C[C@@H](CC=C)[C@H]3C[C@@H]4O[C@@H]4C[C@@]32O1 [Zyj07-67-2] | 100 to 102 °C
20 | O=C1C[C@@]2(O)CC[C@H]3C[C@@H]4O[C@@H]4C[C@@]32O1 [Zyj07-102] | 119 to 120 °C

System: Tobacco Mosaic Virus
Experiment: Anti-TMV inactivation activity on tobacco plants
Type: in vivo
Parameters: concentration or dose not given beside the values
Settings: compound mixed with TMV solution 30 minutes, lesions checked three days later

Row | SMILES | TMV inactivation (anti-TMV activity)
21 | C=CC[C@@H]1C[C@]2(O)CCO[C@@]23C[C@H]2O[C@H]2C[C@H]13 [Zyj07-31-2] | 15%
22 | C=CC[C@@H]1C[C@@]2(OC(C)=O)C[C@@H](CC=C)[C@H]3C[C@@H]4O[C@@H]4C[C@@]32O1 [Zyj07-67-2] | 29%
23 | O=C1C[C@@]2(O)CC[C@H]3C[C@@H]4O[C@@H]4C[C@@]32O1 [Zyj07-102] | 14%

System: Cercospora arachidicola
Experiment: Fungicidal activity, fungicide growth rate method, CA
Type: cell-based
Settings: Mycosphaerella arachidis, 50 μg/mL; read-out: fungicidal activity (growth inhibition rate), CA

Row | SMILES | inhibition at 50 µg/mL
24 | C=CC[C@@H]1C[C@]2(O)CCO[C@@]23C[C@H]2O[C@H]2C[C@H]13 [Zyj07-31-2] | 27%
25 | C=CC[C@@H]1C[C@@]2(OC(C)=O)C[C@@H](CC=C)[C@H]3C[C@@H]4O[C@@H]4C[C@@]32O1 [Zyj07-67-2] | 24%
26 | O=C1C[C@@]2(O)CC[C@H]3C[C@@H]4O[C@@H]4C[C@@]32O1 [Zyj07-102] | 14%

System: Pellicularia sasakii
Experiment: Fungicidal activity, fungicide growth rate method, PS
Type: cell-based
Settings: 50 μg/mL; read-out: fungicidal activity (growth inhibition rate), PS

Row | SMILES | inhibition at 50 µg/mL
27 | C=CC[C@@H]1C[C@]2(O)CCO[C@@]23C[C@H]2O[C@H]2C[C@H]13 [Zyj07-31-2] | 18%
28 | C=CC[C@@H]1C[C@@]2(OC(C)=O)C[C@@H](CC=C)[C@H]3C[C@@H]4O[C@@H]4C[C@@]32O1 [Zyj07-67-2] | 36%
29 | O=C1C[C@@]2(O)CC[C@H]3C[C@@H]4O[C@@H]4C[C@@]32O1 [Zyj07-102] | 0%

System: Rhizoctonia cerealis
Experiment: Fungicidal activity, fungicide growth rate method, RC
Type: cell-based
Settings: Ceratobasidium cereale, 50 μg/mL; read-out: fungicidal activity (growth inhibition rate), RC

Row | SMILES | inhibition at 50 µg/mL
30 | C=CC[C@@H]1C[C@]2(O)CCO[C@@]23C[C@H]2O[C@H]2C[C@H]13 [Zyj07-31-2] | 21%
31 | C=CC[C@@H]1C[C@@]2(OC(C)=O)C[C@@H](CC=C)[C@H]3C[C@@H]4O[C@@H]4C[C@@]32O1 [Zyj07-67-2] | 29%
32 | O=C1C[C@@]2(O)CC[C@H]3C[C@@H]4O[C@@H]4C[C@@]32O1 [Zyj07-102] | 0%

System: Mythimna separate (Walker)
Experiment: Insecticidal activity against Mythimna separate (Walker)
Type: in vivo
Settings: Mythimna, 100 μg/mL; read-out: insecticidal activity, Mythimna separate (Walker)

Row | SMILES | pest or weed control at 100 µg/mL
33 | C=CC[C@@H]1C[C@]2(O)CCO[C@@]23C[C@H]2O[C@H]2C[C@H]13 [Zyj07-31-2] | > 30%
34 | C=CC[C@@H]1C[C@@]2(OC(C)=O)C[C@@H](CC=C)[C@H]3C[C@@H]4O[C@@H]4C[C@@]32O1 [Zyj07-67-2] | 0%
35 | O=C1C[C@@]2(O)CC[C@H]3C[C@@H]4O[C@@H]4C[C@@]32O1 [Zyj07-102] | 0%

System: Caenorhabditis elegans
Experiment: Insecticidal activity against Caenorhabditis elegans
Type: in vivo
Settings: Caenorhabditis elegans, 100 μg/mL; read-out: insecticidal activity, Caenorhabditis elegans

Row | SMILES | pest or weed control at 100 µg/mL
36 | C=CC[C@@H]1C[C@]2(O)CCO[C@@]23C[C@H]2O[C@H]2C[C@H]13 [Zyj07-31-2] | 8%
37 | C=CC[C@@H]1C[C@@]2(OC(C)=O)C[C@@H](CC=C)[C@H]3C[C@@H]4O[C@@H]4C[C@@]32O1 [Zyj07-67-2] | 20%

System: Apis mellifera ligustica Spin
Experiment: not given
Settings: dosage 6.51 μg a.i./bee

Row | SMILES | Death rate after 48 h (%)
38 | C=CC[C@@H]1C[C@]2(O)CCO[C@@]23C[C@H]2O[C@H]2C[C@H]13 [Zyj07-31-2] | 0%

Same assay, conditions: dosage 6.51 μg a.i./bee; per replicate of 10 bees

Row | SMILES | Death number after 24 h | Death number after 48 h
39 | C=CC[C@@H]1C[C@]2(O)CCO[C@@]23C[C@H]2O[C@H]2C[C@H]13 [Zyj07-31-2] | 0 | 0

Same assay, conditions: dosage 9.36 μg a.i./bee

Row | SMILES | Death rate after 48 h (%)
40 | C=CC[C@@H]1C[C@]2(O)CCO[C@@]23C[C@H]2O[C@H]2C[C@H]13 [Zyj07-31-2] | 10.0%

Same assay, conditions: dosage 9.36 μg a.i./bee; per replicate of 10 bees

Row | SMILES | Death number after 24 h | Death number after 48 h
41 | C=CC[C@@H]1C[C@]2(O)CCO[C@@]23C[C@H]2O[C@H]2C[C@H]13 [Zyj07-31-2] | 0 | 1

System: Sclerotinia sclerotiorum
Experiment: Fungicidal activity, fungicide growth rate method, SS
Type: cell-based
Settings: Sclerotinia sclerotiorum, 50 μg/mL

Row | SMILES | inhibition at 50 µg/mL
42 | C=CC[C@@H]1C[C@]2(O)CCO[C@@]23C[C@H]2O[C@H]2C[C@H]13 [Zyj07-31-2] | > 50%
43 | C=CC[C@@H]1C[C@@]2(OC(C)=O)C[C@@H](CC=C)[C@H]3C[C@@H]4O[C@@H]4C[C@@]32O1 [Zyj07-67-2] | > 50%
44 | O=C1C[C@@]2(O)CC[C@H]3C[C@@H]4O[C@@H]4C[C@@]32O1 [Zyj07-102] | 0%

System: Phytophthora infestans (Mont.) de Bary
Experiment: microbe, parasite or virus in culture
Type: cell-based
Settings: Phytophthora infestans, read-out: fungicidal activity (growth inhibition rate), PI, 50 μg/mL

Row | SMILES | inhibition at 50 µg/mL
45 | C=CC[C@@H]1C[C@]2(O)CCO[C@@]23C[C@H]2O[C@H]2C[C@H]13 [Zyj07-31-2] | 21%
46 | C=CC[C@@H]1C[C@@]2(OC(C)=O)C[C@@H](CC=C)[C@H]3C[C@@H]4O[C@@H]4C[C@@]32O1 [Zyj07-67-2] | 25%
47 | O=C1C[C@@]2(O)CC[C@H]3C[C@@H]4O[C@@H]4C[C@@]32O1 [Zyj07-102] | 23%
